Laboratory results taken from publication PMC2929754 (The Journal of parasitology, 2009).

Biological target: T. cruzi lipoamide dehydrogenase (TcLipDH) (Trypanosoma cruzi, UniProt P90597)
Test: Recombinant enzyme kinetics
Assay type: biochemical

T. cruzi lipoamide dehydrogenase (TcLipDH), sequence (P90597 whole entry): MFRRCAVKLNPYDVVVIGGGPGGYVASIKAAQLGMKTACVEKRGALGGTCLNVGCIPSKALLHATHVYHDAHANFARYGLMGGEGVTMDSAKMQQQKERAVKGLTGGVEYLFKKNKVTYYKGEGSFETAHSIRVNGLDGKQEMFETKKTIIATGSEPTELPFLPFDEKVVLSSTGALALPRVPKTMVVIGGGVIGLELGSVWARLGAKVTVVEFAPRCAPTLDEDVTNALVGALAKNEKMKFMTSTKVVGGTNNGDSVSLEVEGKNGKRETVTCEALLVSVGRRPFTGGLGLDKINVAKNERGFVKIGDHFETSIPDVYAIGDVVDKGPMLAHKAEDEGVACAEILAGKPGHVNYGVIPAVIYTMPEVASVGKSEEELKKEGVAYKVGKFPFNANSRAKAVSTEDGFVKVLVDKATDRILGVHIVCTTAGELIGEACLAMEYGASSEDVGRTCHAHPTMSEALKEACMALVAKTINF

O=C1C(c2ccccc2)=C(c2ccccc2)C(=O)c2ccccc21 [DPNQ, 2,3-diphenyl-1,4-naphthoquinone]
Ki: 29 µM
